Results taken from publication PMC9516332 (Frontiers in Oncology, 2022).

What was measured:
Assay in all cases: Kinase panel profiling at 1 µmol/L (MSA or IMAP), percentage inhibition
Assay type in all cases: biochemical
[1] = target: panel of 255 wild-type kinases (Homo sapiens, UniProt O14578); conditions: kinase CRIK; 1 µmol/L single concentration; read-out: %-inhibition at 1 µmol/L, CRIK
[2] = target: panel of 255 wild-type kinases (Homo sapiens, UniProt P43405); conditions: kinase SYK; 1 µmol/L single concentration; read-out: %-inhibition at 1 µmol/L, SYK
[3] = target: T1, panel of 255 wild-type kinases (Homo sapiens, UniProt Q13043); conditions: MST1; 1 µmol/L single concentration; read-out: %-inhibition, MST1
T1 sequence (Q13043 1-487): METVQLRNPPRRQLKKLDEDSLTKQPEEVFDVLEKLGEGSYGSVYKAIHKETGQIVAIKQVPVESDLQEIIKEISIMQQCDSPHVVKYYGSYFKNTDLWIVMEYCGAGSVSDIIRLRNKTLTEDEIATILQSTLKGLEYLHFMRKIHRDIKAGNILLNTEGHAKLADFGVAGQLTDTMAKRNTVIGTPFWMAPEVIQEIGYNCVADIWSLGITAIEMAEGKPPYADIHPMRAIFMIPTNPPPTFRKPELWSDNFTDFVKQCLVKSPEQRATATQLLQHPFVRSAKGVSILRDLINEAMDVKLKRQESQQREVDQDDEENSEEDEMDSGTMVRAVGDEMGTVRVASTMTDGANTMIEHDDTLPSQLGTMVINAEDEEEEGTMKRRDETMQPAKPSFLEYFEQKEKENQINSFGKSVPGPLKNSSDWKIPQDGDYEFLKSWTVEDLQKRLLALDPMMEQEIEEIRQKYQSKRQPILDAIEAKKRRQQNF

[4] = target: panel of 255 wild-type kinases (Homo sapiens, UniProt Q15349); conditions: kinase RSK3; 1 µmol/L single concentration; read-out: %-inhibition at 1 µmol/L, RSK3
[5] = target: T2, panel of 255 wild-type kinases (Homo sapiens, UniProt Q9NRM7); conditions: kinase LATS2; 1 µmol/L single concentration; read-out: %-inhibition at 1 µmol/L, LATS2
T2 sequence (Q9NRM7 1-1088): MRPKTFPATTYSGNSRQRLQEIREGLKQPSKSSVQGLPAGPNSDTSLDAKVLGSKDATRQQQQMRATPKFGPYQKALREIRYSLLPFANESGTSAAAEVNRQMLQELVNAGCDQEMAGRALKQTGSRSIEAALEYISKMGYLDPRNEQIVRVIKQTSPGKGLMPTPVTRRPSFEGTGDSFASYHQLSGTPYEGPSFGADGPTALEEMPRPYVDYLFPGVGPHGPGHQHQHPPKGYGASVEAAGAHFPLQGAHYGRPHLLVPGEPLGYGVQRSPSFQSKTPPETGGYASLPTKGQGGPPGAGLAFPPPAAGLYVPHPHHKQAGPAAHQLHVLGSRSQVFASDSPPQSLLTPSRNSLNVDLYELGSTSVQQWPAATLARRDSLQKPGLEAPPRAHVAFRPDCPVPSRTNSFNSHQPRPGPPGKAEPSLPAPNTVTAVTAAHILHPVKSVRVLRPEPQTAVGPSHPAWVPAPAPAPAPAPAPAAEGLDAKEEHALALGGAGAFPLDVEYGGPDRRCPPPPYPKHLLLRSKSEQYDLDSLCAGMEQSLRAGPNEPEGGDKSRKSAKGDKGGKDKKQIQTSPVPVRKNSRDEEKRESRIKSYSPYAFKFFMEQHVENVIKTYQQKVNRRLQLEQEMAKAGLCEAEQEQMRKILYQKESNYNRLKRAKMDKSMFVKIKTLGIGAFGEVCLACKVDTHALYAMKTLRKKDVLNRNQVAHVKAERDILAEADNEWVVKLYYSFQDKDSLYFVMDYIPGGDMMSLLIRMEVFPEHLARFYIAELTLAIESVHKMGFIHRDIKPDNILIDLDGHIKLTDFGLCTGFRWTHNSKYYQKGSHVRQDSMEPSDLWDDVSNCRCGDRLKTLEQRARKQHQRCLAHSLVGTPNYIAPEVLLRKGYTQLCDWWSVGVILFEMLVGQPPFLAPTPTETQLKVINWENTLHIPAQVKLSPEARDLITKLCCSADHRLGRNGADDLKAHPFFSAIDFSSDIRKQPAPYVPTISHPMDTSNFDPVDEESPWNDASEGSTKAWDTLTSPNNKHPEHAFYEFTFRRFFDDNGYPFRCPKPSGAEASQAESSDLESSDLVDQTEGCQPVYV

[6] = target: T3, panel of 255 wild-type kinases (Homo sapiens, UniProt Q9UF33); conditions: kinase EPHA6; 1 µmol/L single concentration; read-out: %-inhibition at 1 µmol/L, EPHA6
T3 sequence (Q9UF33 23-1036): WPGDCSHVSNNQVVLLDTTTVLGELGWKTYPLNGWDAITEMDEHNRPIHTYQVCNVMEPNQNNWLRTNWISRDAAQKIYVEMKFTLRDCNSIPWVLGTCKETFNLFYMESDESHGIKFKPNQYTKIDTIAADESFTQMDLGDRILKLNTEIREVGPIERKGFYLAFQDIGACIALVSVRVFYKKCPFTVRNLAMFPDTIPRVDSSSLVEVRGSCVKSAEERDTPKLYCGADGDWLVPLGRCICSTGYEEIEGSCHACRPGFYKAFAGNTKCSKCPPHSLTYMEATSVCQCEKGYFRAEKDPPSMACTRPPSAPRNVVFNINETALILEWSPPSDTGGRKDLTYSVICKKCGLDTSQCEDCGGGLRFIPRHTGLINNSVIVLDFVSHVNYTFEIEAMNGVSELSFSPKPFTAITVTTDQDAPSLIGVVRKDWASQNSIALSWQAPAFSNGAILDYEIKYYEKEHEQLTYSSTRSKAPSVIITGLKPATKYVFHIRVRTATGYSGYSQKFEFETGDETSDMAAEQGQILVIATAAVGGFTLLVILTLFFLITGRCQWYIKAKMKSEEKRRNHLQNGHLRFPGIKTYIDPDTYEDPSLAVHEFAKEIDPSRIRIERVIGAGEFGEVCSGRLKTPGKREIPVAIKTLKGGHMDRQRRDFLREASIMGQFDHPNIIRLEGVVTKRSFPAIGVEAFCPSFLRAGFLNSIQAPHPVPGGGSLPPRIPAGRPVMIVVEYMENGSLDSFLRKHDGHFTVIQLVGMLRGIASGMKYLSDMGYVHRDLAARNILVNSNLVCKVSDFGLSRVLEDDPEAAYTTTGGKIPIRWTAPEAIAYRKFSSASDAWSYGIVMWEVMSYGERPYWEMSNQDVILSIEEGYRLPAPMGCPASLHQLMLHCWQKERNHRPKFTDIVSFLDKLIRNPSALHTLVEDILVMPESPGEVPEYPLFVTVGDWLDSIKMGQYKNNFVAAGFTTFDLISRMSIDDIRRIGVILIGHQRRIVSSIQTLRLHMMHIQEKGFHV

| Compound | inhibition at 1 µM [1] [%] | inhibition at 1 µM [2] [%] | inhibition at 1 µM [3] [%] | inhibition at 1 µM [4] [%] | inhibition at 1 µM [5] [%] | inhibition at 1 µM [6] [%] |
| --- | --- | --- | --- | --- | --- | --- |
| Cc1cc(Nc2ncnc3ccc(NC4=NC(C)(C)CO4)cc23)ccc1Oc1ccn2ncnc2c1 [tucatinib] | -2.49 | -0.549 | 4 | 2.84 | 0.168 | 2.19 |
| C=CC(=O)N1CCC([C@@H]2CCNc3c(C(N)=O)c(-c4ccc(Oc5ccccc5)cc4)nn32)CC1 [zanubrutinib] | -2.4 | -6.37 | -3 | -7 | -0.0723 | 14 |
